We go through 47 molecules from US20240351996A1, “CDK19-SELECTIVE INHIBITORS, AND METHODS OF USE THEREOF” (CZ BIOHUB SF, LLC, priority 2022, published 2024).

pIC50: −log10 of the molar value.

One test has as its target CDK8 (Homo sapiens, UniProt P49336). The experiment in a line: LanthaScreen europium kinase binding assay (FRET displacement), CDK8. The protocol: (§1) FRET Displacement Assay to Measure IC50: The CDK19/CDK8 IC50 values were measured to evaluate activity and to determine CDK19/CDK8 selectivity. The IC50 values of the disclosed compounds was measured using a LanthaScreen™ europium kinase binding assay (ThermoFisher), as described herein.
[…] An aliquot of the cocktail solution (10 μL) was added to each well of a LUMITRAC™ 200:384 flat bottom, non-treated microtiter white plate. The plate was then covered to protect light sensitive reagents and incubated for 30 min at room temperature to equilibrate before addition of any inhibitors.
(§2) A serial dilution of the compounds was titrated into each well using an automated liquid handling Staccato integrated system at the following concentration(s) (Log10 Molar [C]): −4.5, −5.0, −5.5, −6.0, −6.5, −7.0, −7.5, −8.0 so that a complete dose-response could be calculated. A Tecan microplate reader infinite m200 instrument was then used to measure the FRET signal of each individual well using an excitation of 317/20 nm, emission europium of 620/12 nm, and emission kinase tracer of 665/12 nm after a 3 h incubation period at room temperature until steady-state kinetics were achieved.
(§3) Results were performed in duplicate and were repeated a total of 3 independent times before data was normalized to the DMSO control group and IC50 values reported.
(TR-FRET usually uses a lanthanide donor and a delayed reading to cut background.)

The next test deals with CDK19/CycC (Homo sapiens, UniProt Q9BWU1). The experiment in a line: LanthaScreen europium kinase binding assay (FRET displacement), CDK19. The conditions noted are these: for CDK19 Selectivity: CDK19/CDK8 selectivity based on IC50 values; for pIC50: his-tagged CDK19/CycC 5 nM, tracer 10 nM, 3 h incubation. Here is the method:
as §1
To a kinase buffer cocktail solution (i.e., 5× Kinase Buffer A) was added: purified recombinant his-tagged CDK19/CycC protein (5 nM), ATP-competitive kinase inhibitor scaffold kinase tracer Alexa Fluor® 665 (10 nM), biotin anti-his tag antibody (2 nM), LanthaScreen® europium-streptavidin (2 nM). An aliquot of the cocktail solution (10 μL) was added to each well of a LUMITRAC™ 200:384 flat bottom, non-treated microtiter white plate. The plate was then covered to protect light sensitive reagents and incubated for 30 min at room temperature to equilibrate before addition of any inhibitors.
as §2, §3

Chain of CDK8 (P49336 whole entry): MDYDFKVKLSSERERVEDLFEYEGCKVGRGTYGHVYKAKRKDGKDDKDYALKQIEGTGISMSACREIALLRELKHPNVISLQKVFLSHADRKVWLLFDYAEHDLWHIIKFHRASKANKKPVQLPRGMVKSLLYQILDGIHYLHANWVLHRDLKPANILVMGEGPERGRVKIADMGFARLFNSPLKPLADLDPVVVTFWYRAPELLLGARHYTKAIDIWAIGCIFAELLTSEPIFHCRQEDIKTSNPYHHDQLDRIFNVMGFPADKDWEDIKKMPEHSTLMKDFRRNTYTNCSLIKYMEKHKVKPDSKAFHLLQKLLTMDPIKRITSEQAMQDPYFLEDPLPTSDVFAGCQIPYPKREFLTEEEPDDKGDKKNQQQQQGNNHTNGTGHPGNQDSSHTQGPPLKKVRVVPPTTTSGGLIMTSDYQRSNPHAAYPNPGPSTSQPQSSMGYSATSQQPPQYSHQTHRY
Chain of CDK8 (P24863 whole entry partner): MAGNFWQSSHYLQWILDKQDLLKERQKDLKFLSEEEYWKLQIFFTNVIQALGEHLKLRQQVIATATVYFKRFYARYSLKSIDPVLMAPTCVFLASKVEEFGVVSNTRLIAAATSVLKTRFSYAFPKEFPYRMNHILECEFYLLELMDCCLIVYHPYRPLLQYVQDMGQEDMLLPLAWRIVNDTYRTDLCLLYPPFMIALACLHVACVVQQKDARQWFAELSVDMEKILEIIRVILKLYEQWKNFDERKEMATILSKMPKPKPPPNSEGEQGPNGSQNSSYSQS
Chain of CDK19/CycC (Q9BWU1 whole entry): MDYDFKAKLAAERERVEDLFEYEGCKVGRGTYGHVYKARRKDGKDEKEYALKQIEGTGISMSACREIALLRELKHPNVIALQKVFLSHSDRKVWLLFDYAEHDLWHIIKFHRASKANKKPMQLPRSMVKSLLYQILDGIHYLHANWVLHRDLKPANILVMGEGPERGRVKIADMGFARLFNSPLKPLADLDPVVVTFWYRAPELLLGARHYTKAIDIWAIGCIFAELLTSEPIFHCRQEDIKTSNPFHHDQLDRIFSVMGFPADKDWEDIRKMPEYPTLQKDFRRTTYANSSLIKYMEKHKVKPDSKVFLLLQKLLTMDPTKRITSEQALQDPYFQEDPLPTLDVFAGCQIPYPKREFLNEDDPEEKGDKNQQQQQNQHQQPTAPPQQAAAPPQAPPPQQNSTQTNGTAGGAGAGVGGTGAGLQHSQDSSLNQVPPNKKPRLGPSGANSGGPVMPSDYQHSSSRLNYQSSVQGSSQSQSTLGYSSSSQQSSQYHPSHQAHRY
Chain of CDK19/CycC (P24863 whole entry partner): as the sequence (P24863 whole entry partner) above

`CC(C)Cc1ccc(Nc2ncc(C(F)(F)c3ccncc3)cn2)cc1` [Compound A161] had a pIC50 at CDK8 of 7.70. In addition, at CDK19/CycC, the “CDK19 Selectivity” value amounted to 2 and the pIC50 was 8.05.
Regarding `CC(C)Cc1ccc(Nc2ncc(Nc3ccncc3)cn2)cc1` [Compound A140], the “CDK19 Selectivity” value at CDK19/CycC was found to be 2.5.
In the case of `COc1cc(N2CCN(C)CC2)ccc1Nc1ncc(Nc2ccncc2)cn1` [Compound A38], the pIC50 on CDK8 and on CDK19/CycC was 5.00 throughout.
Turning to `CC(C)Oc1ccc(Nc2ncc(Nc3ccncc3C(F)(F)F)cn2)cc1` [Compound A177], the pIC50 was 8.52 on CDK8 and at least 8.60 on CDK19/CycC.
As for `Cc1ccc(C#N)cc1-c1cnc(Nc2ccc(CC(C)C)cc2)nc1` [Compound A93], the pIC50 on CDK8 is 6.56. For the same molecule, on CDK19/CycC, the “CDK19 Selectivity” value is 2 and the pIC50 was 6.88.
On CDK8, `Cc1cc(Nc2ncc(Nc3ccncc3)cn2)ccc1F` [Compound A41] showed a pIC50 of 5.05. Further, at CDK19/CycC, the “CDK19 Selectivity” value came out at 1 and the pIC50 is 5.05.
In the case of `Cc1ccc(-c2ccc(Nc3ccc(CC(C)C)cc3)nc2)cc1` [Compound A77], the pIC50 at CDK8 is 5.42. Further, at CDK19/CycC, the “CDK19 Selectivity” value was found to be 3.5 and the pIC50 is 5.97.
The matching figures for `CC(C)Cc1ccc(Nc2ncc(C(=O)c3ccncc3Cl)cn2)cc1` [Compound A118]: 8.18, 1.8 and 8.43.
On to `c1cc(Nc2ncc(Nc3ccncc3)cn2)cc(C2CC2)c1` [Compound A26], for which the pIC50 was 5.04 on CDK8 and 5.24 on CDK19/CycC. The “CDK19 Selectivity” value on CDK19/CycC is 1.6.
For `CC(C)Cc1ccc(Nc2ncc(Nc3ccncc3F)cn2)cc1` [Compound A56] the same measures were 7.57, at least 8.60 and at least 11.
For `Cc1cnccc1Nc1cnc(Nc2ccc(OC(C)C)cc2)nc1` [Compound A160] the same measures were 7.02, 7.48 and 3.
On to `CC(C)Cc1ccc(Nc2ncc(Nc3ccncc3)cn2)cc1` [Compound A5], for which the “CDK19 Selectivity” value on CDK19/CycC turned out to be 3.
Regarding `c1cc(Nc2cnc(Nc3ccc4c(c3)CCCC4)nc2)ccn1` [Compound A37], the pIC50 on CDK8 was 7.08. Besides, on CDK19/CycC, the “CDK19 Selectivity” value was 2 and the pIC50 was 7.39.
Consider `Cc1ccc2nccc(Nc3cnc(Nc4ccc(CC(C)C)cc4)nc3)c2c1` [Compound A13], for which the values for the pIC50 on CDK8 and on CDK19/CycC were 7.25 and 7.62, respectively. For the same molecule, at CDK19/CycC, the “CDK19 Selectivity” value turned out to be 2.4.
With `Cc1cc(C(=O)c2cnc(Nc3ccc(CC(C)C)cc3)nc2)ccn1` [Compound A71], the pIC50 on CDK8 was 8.22; at CDK19/CycC, at least 8.60. Further, the “CDK19 Selectivity” value at CDK19/CycC came out at 3.
For `COc1cnccc1Nc1cnc(Nc2ccc(CC(C)C)cc2)nc1` [Compound A50] the same measures were 7.80, at least 8.60 and at least 6.
With `CC(C)Cc1ccc(Nc2ncc(-c3ccc(C#N)cn3)cn2)cc1` [Compound A95], the pIC50 at CDK8 and on CDK19/CycC was 5.00 in each case.
With `COc1cc(Nc2cnc(Nc3ccc(CC(C)C)cc3)nc2)ccn1` [Compound A23], the pIC50 on CDK8 is 6.35; at CDK19/CycC, 7.00. Besides, the “CDK19 Selectivity” value at CDK19/CycC came out at 4.5.
As for `c1cc(Nc2cnc(Nc3ccc(C4CC4)cc3)nc2)ccn1` [Compound A16], the pIC50 on CDK8 was 6.43. Also, at CDK19/CycC, the “CDK19 Selectivity” value is 2.8 and the pIC50 is 6.88.
The matching figures for `CC(C)Cc1ccc(Nc2ncc(Nc3ccncc3C(F)(F)F)cn2)cc1` [Compound A154]: 8.52, 1 and 8.52.
For `CCCc1ccc(Nc2ncc(Nc3ccnc4ccccc34)cn2)cc1` [Compound A15] the same measures were 6.96, 1.1 and 7.02.
For `CCOc1ccc(Nc2ncc(Nc3ccncc3C(F)(F)F)cn2)cc1` [Compound A178], the pIC50 on CDK8 is 8.00; at CDK19/CycC it was at least 8.60.
As to `Cc1nc(Nc2ccc(CC(C)C)cc2)ncc1Nc1ccncc1` [Compound A6], on CDK8, the pIC50 was 6.68. In addition, at CDK19/CycC, the “CDK19 Selectivity” value is 5.5 and the pIC50 is 7.42.
The matching figures for `Cc1cc(CC(C)C)ccc1Nc1ncc(C(=O)c2ccncc2OC2CCCC2)cn1` [Compound A172]: 7.96, 2 and 8.30.
`CC(C)Cc1ccc(Nc2ncc(-c3cc[nH]c(=O)c3)cn2)cc1` [Compound A141]: the pIC50 on CDK8 and at CDK19/CycC was 5.00 throughout. At CDK19/CycC, the “CDK19 Selectivity” value turned out to be 1.
On CDK8, `FC(F)(F)c1cc(Nc2ncc(Nc3ccncc3)cn2)cc(C(F)(F)F)c1` [Compound A44] gave a pIC50 of 5.20. In addition, at CDK19/CycC, the “CDK19 Selectivity” value came out at 1 and the pIC50 is 5.32.
The matching figures for `CC(C)Cc1ccc(Nc2ncc(C3(c4ccncc4)CC3)cn2)cc1` [Compound A169]: 7.21, 3 and 7.70.
In the case of `Cc1cc(C#N)cc(-c2cnc(Nc3ccc(CC(C)C)cc3)nc2)c1` [Compound A94], the pIC50 on CDK8 is 6.06. At CDK19/CycC, the “CDK19 Selectivity” value came out at 2 and the pIC50 is 6.36.
Consider `Fc1ccc(Nc2ccc(Nc3ccncc3)cn2)cc1` [Compound A84], for which the negative-log IC50 (pIC50) on CDK8 and on CDK19/CycC was 5.00 throughout.
Molecule `Cc1cc(Nc2cnc(Nc3ccc(CC(C)C)cc3)nc2)cc(C)n1` [Compound A9] showed a pIC50 at CDK8 of 5.08. For the same molecule, on CDK19/CycC, the “CDK19 Selectivity” value worked out at 4 and the pIC50 was 5.68.
The matching figures for `CCc1cnc(C)cc1Nc1cnc(Nc2ccc(CC(C)C)cc2)nc1` [Compound A64]: 6.04, 2.3 and 6.41.
With `CC(C)Cc1ccc(Nc2ncc(Nc3ccncc3Cl)cn2)c(F)c1` [Compound A58], at CDK8, the pIC50 is 8.55. In addition, at CDK19/CycC, the “CDK19 Selectivity” value is 2 and the pIC50 was at least 8.60.
Regarding `Cc1cncc(C)c1Nc1cnc(Nc2ccc(CC(C)C)cc2)nc1` [Compound A66], the pIC50 on CDK8 was 8.24. Further, at CDK19/CycC, the “CDK19 Selectivity” value amounted to 1.2 and the pIC50 was 8.34.
For the molecule `CC(C)Cc1ccc(Nc2ncc(C(=O)c3ccncc3OC3CCCC3)cn2)c(F)c1` [Compound A176], the pIC50 was 7.89 on CDK8 and 8.15 at CDK19/CycC. Besides, the “CDK19 Selectivity” value on CDK19/CycC turned out to be 2.
With `Cc1cncc(F)c1Nc1cnc(Nc2ccc(CC(C)C)cc2)nc1` [Compound A62], the pIC50 on CDK8 is 8.52; on CDK19/CycC, at least 8.60. Besides, the “CDK19 Selectivity” value on CDK19/CycC was 1.5.
Turning to `CCCc1ccc(Nc2ncc(Nc3cc(C)nc(C)c3)cn2)cc1` [Compound A20], the pIC50 on CDK8 and on CDK19/CycC was 5.00 throughout.
`Cc1cc(Nc2cnc(Nc3cccc(C4CC4)c3)nc2)cc(C)n1` [Compound A27]: the pIC50 at CDK8 and at CDK19/CycC was 5.00 each time.
The molecule `CC(C)Cc1cccc(Nc2ncc(Nc3ccnc(C(C)C)c3)cn2)c1` [Compound A34] gave a pIC50 on CDK8 of 5.35. At CDK19/CycC, the “CDK19 Selectivity” value is reported as 5 and the pIC50 is 6.04.
For `Cc1cncc(F)c1C(=O)c1cnc(Nc2ccc(CC(C)C)cc2)nc1` [Compound A117], at CDK8, the pIC50 is 5.00. On CDK19/CycC, the “CDK19 Selectivity” value was 1.5 and the pIC50 was 5.19.
Regarding `CC(C)Cc1ccc(Nc2ncc(Nc3ccncc3-c3cnn(C4CC4)c3)cn2)cc1` [Compound A158], the figures for the pIC50 at CDK8 and on CDK19/CycC were 7.80 and 7.62, respectively.
Regarding `CC(C)Cc1ccc(Nc2ncc(-c3cccnc3)cn2)cc1` [Compound A87], the pIC50 on CDK8 is 6.70. Moreover, on CDK19/CycC, the “CDK19 Selectivity” value is reported as 2.4 and the pIC50 was 7.08.
For `FC(F)C(F)(F)Oc1ccc(Nc2ncc(Nc3ccncc3)cn2)cc1` [Compound A19] the same measures were 7.42, 4.2 and 8.04.
For `FC(F)C(F)(F)Oc1ccc(Nc2ncc(Nc3ccncc3OC3CCCC3)cn2)cc1` [Compound A67] the same measures were 6.97, 1 and 6.97.
For `Cc1cc(Nc2cnc(Nc3ccc(CC(C)C)cc3)nc2)ccn1` [Compound A8], the “CDK19 Selectivity” value on CDK19/CycC came out at 3.3.
`Cc1cc(CC(C)C)cc(Nc2ncc(Nc3ccncc3)cn2)c1` [Compound A40]: the pIC50 at CDK19/CycC is 4.60.
Regarding `Cc1cc(Nc2cnc(Nc3ccc(CC(C)C)cc3)nc2)ccn1` [Compound A144], the “CDK19 Selectivity” value at CDK19/CycC is recorded as 2.5.
Consider `O=C(NC1CCCC1)c1cnccc1Nc1cnc(Nc2ccc(C3CCCCC3)cc2)nc1` [Compound A151], for which the pIC50 on CDK19/CycC is 5.95.

As usually defined, the pIC50 is −log10 of the IC50, conventionally taken in molar units.
